Test system: TNBS-induced colitis
Test: TNBS-induced colitis in mice, oral dosing once a day Days 1-7
Type: in vivo, female SJL mice
Parameters: Disease Activity Index, Mean / Fecal Consistency, Mean: scale not given here
Details: for Colon Length, Mean / Colon Weight, Mean / Colon Weight/Length ratio, Mean: at euthanasia; for Histopathological severity score, Mean: colon H&E, score 0-4; for overall conclusion as compared to TNBS-vehicle (in words): oral
Protocol: Healthy young female SJL mice were used for the study. At the commencement of the study, the mice were between 8-9 weeks of age, weighing 20-22 g. All the mice were obtained from The Jackson Laboratory, Bar Harbor, Me. 04609 USA.
After seven days of acclimatization, mice were grouped according to their body weight. There was one group of ten mice and five groups of fifteen mice each. Five groups of fifteen mice each were challenged intra-rectally with 100 μl of 2.0% TNBS in 50% EtOH and other group of ten mice were challenged intra-rectally with 100 μl of 50% EtOH and serve as No-TNBS control. The experimental groups were as follows:
The mice were challenged intra-rectally with 100 μl of 2% TNBS in 50% ethanol under light anesthesia with ketamine/xylazine. The test compounds were administrated an hour prior to intra-rectal administration of TNBS as per scheduled daily dosing.
Vehicle and no-TNBS control groups received 0.5% CMC orally from Day 1 to Day 7.
Body Weight: The body weights were measured daily for 1-7 days using a laboratory balance.
Disease Activity Index: The clinical assessment of the mice was performed beginning Day 2 (a day after the intra-rectal administration of TNBS). The clinical assessment includes body weight, stool consistency and the presence of blood in the stools and scored according to Table 2.
Colon Length and Weight: the mice were euthanized using CO2 asphyxiation and colon from the colocecal junction to the anus was removed, washed and cleaned of all fecal matter using PBS. The colon length and weight were measured and then preserved in 10% NBF for histopathology.
Histopathology: Formalin fixed colon samples were submitted to affiliated histopathology laboratory for histopathological analysis subjected to hematoxylin and eosin (H & E) staining using standard techniques. Each colon was trimmed from both ends and mid. All three sections were stained and evaluated.
A board certified veterinarian pathologist assessed the presence of colitis and severity score according to the following criteria: • 0=no sign of inflammation • 1=very low level of inflammation • 2=low level of leukocytic infiltration, low level of inflammation • 3=high level of leukocytic infiltration, high vascular density, inflammation and thickening of colon wall • 4=transmural infiltration, loss of goblet cells, high vascular density, crypt abscesses, thickening of colon wall and ulceration.
The data is presented as the mean±standard error (SEM) obtained from Microsoft Excel or GraphPad Prism version 5.00 for Windows (GraphPad Software, San Diego Calif. USA). The data was analyzed using two-way ANOVA using Bonferroni post-test. Differences between groups were considered significant at p<0.05.

C[C@@H]([C@H](O)c1ccc(O)cc1)N1CCC(Cc2ccccc2)CC1 (racemic) [Ifenprodil, 4-[2-(4-benzylpiperidin-1-ium-1-yl)-1-hydroxypropyl] phenol; 2,3,4-trihydroxy-4-oxobutanoate]
Disease Activity Index vs TNBS-vehicle group (in words) (30 mg/kg): No significant differences
histopathology, cell morphological changes / severity (in words) (30 mg/kg PO QD (Table 1)): statistically significantly reducing cell morphological changes associated with disease
body weight change as compared to the TNBS-vehicle group (in words) (30 mg/kg po): significant improvement beginning on Day 4
Percent Change in Body Weight, Mean (Day 1, 30 mg/kg PO QD): 0.00%
Percent Survivability (Day 1, 30 mg/kg PO QD): 100.000%
Disease Activity Index, Mean (Day 2, 30 mg/kg PO QD): 1.62
Fecal Consistency, Mean (Day 2, 30 mg/kg PO QD): 1.00
Occult Positivity, Mean (Day 2, 30 mg/kg PO QD): 1.86
Percent Change in Body Weight, Mean (Day 2, 30 mg/kg PO QD): −9.38%
Percent Survivability (Day 2, 30 mg/kg PO QD): 93.000%
Disease Activity Index, Mean (Day 3, 30 mg/kg PO QD): 2.04
Fecal Consistency, Mean (Day 3, 30 mg/kg PO QD): 1.71
Occult Positivity, Mean (Day 3, 30 mg/kg PO QD): 2.14
Percent Change in Body Weight, Mean (Day 3, 30 mg/kg PO QD): −11.31%
Percent Survivability (Day 3, 30 mg/kg PO QD): 93.000%
Disease Activity Index, Mean (Day 4, 30 mg/kg PO QD): 2.14
Fecal Consistency, Mean (Day 4, 30 mg/kg PO QD): 2.00
Occult Positivity, Mean (Day 4, 30 mg/kg PO QD): 2.62
Percent Change in Body Weight, Mean (Day 4, 30 mg/kg PO QD): −9.44%
Percent Survivability (Day 4, 30 mg/kg PO QD): 86.600%
Disease Activity Index, Mean (Day 5, 30 mg/kg PO QD): 1.82
Fecal Consistency, Mean (Day 5, 30 mg/kg PO QD): 1.67
Occult Positivity, Mean (Day 5, 30 mg/kg PO QD): 2.33
Percent Change in Body Weight, Mean (Day 5, 30 mg/kg PO QD): −7.64%
Percent Survivability (Day 5, 30 mg/kg PO QD): 80.000%
Disease Activity Index, Mean (Day 6, 30 mg/kg PO QD): 1.56
Fecal Consistency, Mean (Day 6, 30 mg/kg PO QD): 1.33
Occult Positivity, Mean (Day 6, 30 mg/kg PO QD): 2.00
Percent Change in Body Weight, Mean (Day 6, 30 mg/kg PO QD): −6.68%
Percent Survivability (Day 6, 30 mg/kg PO QD): 80.000%
Disease Activity Index, Mean (Day 7, 30 mg/kg PO QD): 1.41
Fecal Consistency, Mean (Day 7, 30 mg/kg PO QD): 1.17
Occult Positivity, Mean (Day 7, 30 mg/kg PO QD): 1.83
Percent Change in Body Weight, Mean (Day 7, 30 mg/kg PO QD): −6.23%
Percent Survivability (Day 7, 30 mg/kg PO QD): 80.000%
Colon Length, Mean (30 mg/kg PO QD Days 1-7): 8.93 cm
Colon Weight, Mean (30 mg/kg PO QD Days 1-7): 0.2145 g
Colon Weight/Length ratio, Mean (30 mg/kg PO QD Days 1-7): 24.5065 mg/cm
Histopathological severity score, Mean (30 mg/kg PO QD Days 1-7): 1.06
overall conclusion as compared to TNBS-vehicle (in words) (30 mg/kg): showed improvement in colitis as well as in the loss of body weight, DAI, colon length, weight and weight/length ratio

Nc1ccc(O)c(C(=O)O)c1 [5-ASA, 5-Amino-2-hydroxybenzoic acid]
histopathology, cell morphological changes / severity (in words) (100 mg/kg PO QD (Table 1)): statistically significantly reducing cell morphological changes associated with disease
body weight change as compared to the TNBS-vehicle group (in words) (100 mg/kg po): significant improvement beginning on Day 4
Percent Change in Body Weight, Mean (Day 1, 100 mg/kg PO QD): 0.00%
Percent Survivability (Day 1, 100 mg/kg PO QD): 100.000%
Fecal Consistency, Mean (Day 2, 100 mg/kg PO QD): 1.47
Occult Positivity, Mean (Day 2, 100 mg/kg PO QD): 1.33
Percent Change in Body Weight, Mean (Day 2, 100 mg/kg PO QD): −10.01%
Percent Survivability (Day 2, 100 mg/kg PO QD): 100.000%
Occult Positivity, Mean (Day 3, 100 mg/kg PO QD): 2.00
Percent Change in Body Weight, Mean (Day 3, 100 mg/kg PO QD): −10.45%
Percent Survivability (Day 3, 100 mg/kg PO QD): 100.000%
Percent Change in Body Weight, Mean (Day 4, 100 mg/kg PO QD): −9.33%
Percent Survivability (Day 4, 100 mg/kg PO QD): 93.000%
Fecal Consistency, Mean (Day 5, 100 mg/kg PO QD): 1.38
Occult Positivity, Mean (Day 5, 100 mg/kg PO QD): 2.15
Percent Change in Body Weight, Mean (Day 5, 100 mg/kg PO QD): −7.81%
Percent Survivability (Day 5, 100 mg/kg PO QD): 86.670%
Fecal Consistency, Mean (Day 6, 100 mg/kg PO QD): 0.83
Occult Positivity, Mean (Day 6, 100 mg/kg PO QD): 1.67
Percent Change in Body Weight, Mean (Day 6, 100 mg/kg PO QD): −5.87%
Percent Survivability (Day 6, 100 mg/kg PO QD): 80.000%
occult positivity as compared to TNBS-vehicle (in words) (Day 7, 100 mg/kg): significant improvements
Fecal Consistency, Mean (Day 7, 100 mg/kg PO QD): 0.83
Occult Positivity, Mean (Day 7, 100 mg/kg PO QD): 1.17
Percent Change in Body Weight, Mean (Day 7, 100 mg/kg PO QD): −6.09%
Percent Survivability (Day 7, 100 mg/kg PO QD): 80.000%
Colon Length, Mean (100 mg/kg PO QD Days 1-7): 9.08 cm
Colon Weight, Mean (100 mg/kg PO QD Days 1-7): 0.2494 g
Histopathological severity score, Mean (100 mg/kg PO QD Days 1-7): 1.08
overall conclusion as compared to TNBS-vehicle (in words) (100 mg/kg): showed improvement in the colitis, loss of body weight and disease activity index

O=C(Nc1ccc2[nH]c(=O)oc2c1)C(=O)N1CCC(Cc2ccc(F)cc2)CC1 [Radiprodil, 2-[4-[(4-fluorophenyl)methyl]piperidin-1-yl]-2-oxo-N-(2-oxo-3H-1,3-benzoxazol-6-yl)acetamide]
Disease Activity Index vs TNBS-vehicle group (in words) (30 mg/kg): No significant differences
histopathology, cell morphological changes / severity (in words) (30 mg/kg PO QD (Table 1)): reduced severity
body weight change as compared to the TNBS-vehicle group (in words) (30 mg/kg po): significant improvement beginning Day 4, with the exception of Day 3
Percent Change in Body Weight, Mean (Day 1, 30 mg/kg PO QD): 0.00%
Percent Survivability (Day 1, 30 mg/kg PO QD): 100.000%
Disease Activity Index, Mean (Day 2, 30 mg/kg PO QD): 1.84
Fecal Consistency, Mean (Day 2, 30 mg/kg PO QD): 1.20
Occult Positivity, Mean (Day 2, 30 mg/kg PO QD): 2.00
Percent Change in Body Weight, Mean (Day 2, 30 mg/kg PO QD): −10.51%
Percent Survivability (Day 2, 30 mg/kg PO QD): 100.000%
Disease Activity Index, Mean (Day 3, 30 mg/kg PO QD): 2.24
Fecal Consistency, Mean (Day 3, 30 mg/kg PO QD): 1.33
Occult Positivity, Mean (Day 3, 30 mg/kg PO QD): 2.53
Percent Change in Body Weight, Mean (Day 3, 30 mg/kg PO QD): −13.08%
Percent Survivability (Day 3, 30 mg/kg PO QD): 100.000%
Disease Activity Index, Mean (Day 4, 30 mg/kg PO QD): 2.13
Fecal Consistency, Mean (Day 4, 30 mg/kg PO QD): 1.23
Occult Positivity, Mean (Day 4, 30 mg/kg PO QD): 2.46
Percent Change in Body Weight, Mean (Day 4, 30 mg/kg PO QD): −10.35%
Percent Survivability (Day 4, 30 mg/kg PO QD): 86.670%
Disease Activity Index, Mean (Day 5, 30 mg/kg PO QD): 1.78
Fecal Consistency, Mean (Day 5, 30 mg/kg PO QD): 1.00
Occult Positivity, Mean (Day 5, 30 mg/kg PO QD): 2.33
Percent Change in Body Weight, Mean (Day 5, 30 mg/kg PO QD): −8.29%
Percent Survivability (Day 5, 30 mg/kg PO QD): 80.000%
Disease Activity Index, Mean (Day 6, 30 mg/kg PO QD): 1.67
Fecal Consistency, Mean (Day 6, 30 mg/kg PO QD): 1.00
Occult Positivity, Mean (Day 6, 30 mg/kg PO QD): 2.17
Percent Change in Body Weight, Mean (Day 6, 30 mg/kg PO QD): −7.58%
Percent Survivability (Day 6, 30 mg/kg PO QD): 80.000%
Disease Activity Index, Mean (Day 7, 30 mg/kg PO QD): 1.50
Fecal Consistency, Mean (Day 7, 30 mg/kg PO QD): 1.00
Occult Positivity, Mean (Day 7, 30 mg/kg PO QD): 1.83
Percent Change in Body Weight, Mean (Day 7, 30 mg/kg PO QD): −6.95%
Percent Survivability (Day 7, 30 mg/kg PO QD): 80.000%
Colon Length, Mean (30 mg/kg PO QD Days 1-7): 8.42 cm
Colon Weight, Mean (30 mg/kg PO QD Days 1-7): 0.3095 g
Colon Weight/Length ratio, Mean (30 mg/kg PO QD Days 1-7): 37.7622 mg/cm
Histopathological severity score, Mean (30 mg/kg PO QD Days 1-7): 1.61
overall conclusion as compared to TNBS-vehicle (in words) (30 mg/kg): showed improvement in colitis as well as in the loss of body weight, DAI, colon length, weight and weight/length ratio

Source: patent US20210290604A1, “COMPOUNDS FOR TREATMENT OF INFLAMMATORY BOWEL DISEASE AND METHODS THEREOF” (priority 2018, published 2021)
